Square brackets hold non-standard residues; d marks the D form. Ends that are not written are not given here. Peptide text beside a SMILES is read from it. * marks the point of attachment. X1 = NC(Cc1ccccc1)C(O)C(=O)*; βAla = NCCC(=O)O
Experiments:
[1] = test system: mitochondrial membranes; test: Mitochondrial swelling assay; settings: at a concentration of 10 μM
Excerpt: In one embodiment, the invention provides a conjugate in which the antimicrobial peptide portion promotes disruption of mitochondrial membranes when internalized by eukaryotic cells. In particular, such an antimicrobial peptide preferentially disrupts mitochondrial membranes as compared to eukaryotic membranes. Mitochondrial membranes, like bacterial membranes but in contrast to eukaryotic plasma membranes, have a high content of negatively charged phospholipids. An antimicrobial peptide can be assayed for activity in disrupting mitochondrial membranes using, for example, an assay for mitochondrial swelling (as described in Example I) or another assay well known in the art. […] An antimicrobial peptide that induces significant mitochondrial swelling at, for example, 50 μM, 40 μM, 30 μM, 20 μM, 10 μM, or less, is considered a peptide that promotes disruption of mitochondrial membranes.

[2] = molecular target: T1, rat membrane-bound aminopeptidase P (Rattus norvegicus, UniProt Q99MA2); settings: cited from earlier work; for IC50: 0.5 mM arg = Pro-Pro in 0.1 M Hepes, pH 8.0, triplicate
T1 sequence (Q99MA2 23-650): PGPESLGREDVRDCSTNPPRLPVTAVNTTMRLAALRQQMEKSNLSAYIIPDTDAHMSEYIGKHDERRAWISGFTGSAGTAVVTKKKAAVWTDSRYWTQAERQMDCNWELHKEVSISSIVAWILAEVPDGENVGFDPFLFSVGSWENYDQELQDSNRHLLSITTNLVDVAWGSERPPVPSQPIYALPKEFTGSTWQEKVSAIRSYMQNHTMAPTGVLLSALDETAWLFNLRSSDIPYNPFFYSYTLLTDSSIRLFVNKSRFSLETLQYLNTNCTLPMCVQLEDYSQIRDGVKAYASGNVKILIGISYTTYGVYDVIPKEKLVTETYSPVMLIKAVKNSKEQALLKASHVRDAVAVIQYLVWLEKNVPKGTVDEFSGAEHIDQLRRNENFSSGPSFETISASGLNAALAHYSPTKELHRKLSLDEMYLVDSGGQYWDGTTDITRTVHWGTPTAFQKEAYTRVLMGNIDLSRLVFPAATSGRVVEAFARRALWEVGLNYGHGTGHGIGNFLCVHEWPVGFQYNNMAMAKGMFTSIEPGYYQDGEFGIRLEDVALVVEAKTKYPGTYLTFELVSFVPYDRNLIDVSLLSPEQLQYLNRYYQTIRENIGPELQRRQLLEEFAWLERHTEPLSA

[3] = molecular target: human membrane-bound aminopeptidase P (Homo sapiens, UniProt O43895); settings: 0.5 mM arg = Pro-Pro in 0.1 M Hepes, pH 8.0; triplicate; cited from earlier work
Sequence of human membrane-bound aminopeptidase P (O43895 22-649): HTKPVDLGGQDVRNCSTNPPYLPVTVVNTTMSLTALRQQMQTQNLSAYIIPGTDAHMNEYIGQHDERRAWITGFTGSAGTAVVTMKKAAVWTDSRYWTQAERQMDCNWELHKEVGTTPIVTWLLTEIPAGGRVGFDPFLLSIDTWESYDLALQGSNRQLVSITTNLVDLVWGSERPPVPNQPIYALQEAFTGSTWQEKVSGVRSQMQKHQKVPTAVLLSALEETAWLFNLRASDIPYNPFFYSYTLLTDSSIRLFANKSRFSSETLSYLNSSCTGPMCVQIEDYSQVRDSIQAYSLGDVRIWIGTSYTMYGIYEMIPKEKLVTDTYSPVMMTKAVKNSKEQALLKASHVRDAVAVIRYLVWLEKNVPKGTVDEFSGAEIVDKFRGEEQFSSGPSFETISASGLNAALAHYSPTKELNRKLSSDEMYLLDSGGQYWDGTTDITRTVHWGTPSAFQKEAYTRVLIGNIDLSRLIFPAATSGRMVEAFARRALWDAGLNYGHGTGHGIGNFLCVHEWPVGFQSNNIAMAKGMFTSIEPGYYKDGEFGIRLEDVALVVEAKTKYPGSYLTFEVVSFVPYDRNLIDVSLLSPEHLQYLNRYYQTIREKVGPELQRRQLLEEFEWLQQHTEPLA

[4] = molecular target: bovine membrane-bound aminopeptidase P; settings: cited from earlier work; for IC50: 0.5 mM arg = Pro-Pro in 0.1 M Hepes, pH 8.0, triplicate
[5] = test system: aminopeptidase P; test: Binding of aminopeptidase P cDNA fragment phage to wells coated with […] peptide, with competitors; set-up: species or system human; settings: 1 mg free peptide; apstatin 10 μg/ml; IgG 10 μg/ml
Description: The peptide was synthesized in a Symphony synthesizer (Rainin Instruments; Emeryville, Calif.), cyclized, and purified by HPLC. The peptide was immobilized on a 96 well Reacti-Bind® polystyrene strip plate (Pierce; Rockford, Ill.). The wells were then treated three times×200 μl SuperBlock® blocking buffer (Pierce).
A human breast carcinoma cDNA library on T7 phage obtained from Novagen was amplified in a single step by infecting BLT 5615 bacteria. Phage suspension (100 μl, 10^9 pfu/ml) in PBS was incubated in the wells for one hour; the wells were then washed five times with 200 μl PBS and once with elution buffer (Novagen) to elute phage bound with low and intermediate affinity. Phage bound to the immobilized peptide were subsequently recovered by incubating BLT 5615 bacteria in the wells for 10 minutes at room temperature.

[6] = test system: breast tissue; test: In vivo blocking of breast homing of phage by co-injected agents; settings: mice
Description: (§1) The number of pfu recovered from each organ is shown.
(§2) In vivo phage selection was performed as described previously with a few modifications. Briefly, mice were anesthetized with avertin and then injected intravenously with 10^9 plaque forming units (pfu) from the CX7C library. Seven minutes after the injection, the mice were perfused through the heart with 10 ml of phosphate buffered saline (PBS). Mammary tissue was then excised, weighed, and homogenized using a Medimachine (Dako, Denmark). The resulting single cells were spun down at 1500 rpm and washed five times with PBS. Phage adherent to the cells were rescued by infecting BL21 bacteria (Novagen), and the phage quantified by plaque assay.

[7] = test system: breast tissue; test: In vivo phage homing: recovery of injected phage from tissues; set-up: species or system mice; settings: breast tissue as compared to control pancreatic tissue
Description: A CX7C library (10^9 plaque forming units) was injected into the tail vein of mice; after seven minutes, the mice were perfused through the heart, and phage rescued from breast tissue. The rescued phage were then amplified and re-injected in four additional consecutive rounds. The number of plaque forming units (pfu) recovered from breast tissue is shown (black bars). As a control, non-recombinant T7 phage were injected (white bars). In round five, the number of pfu of phage recovered from the pancreas also was determined (gray bar).
as §1
A phage display peptide library with the general structure of CX7C, where C is cysteine and X is any amino acid, was constructed in T7 phage essentially as follows. Briefly, complementary oligonucleotides that encoded the random peptide insert as NNK codons, and had 5′EcoRI and 3′HindIII overhangs, were annealed. The resulting double stranded DNA was phosphorylated with T4 polynucleotide kinase (Novagen; Madison, Wis.) and ligated into 1 ug of T7Select415-1b vector arms. The ligated product was directly added to 50 μl of packaging extract and incubated for two hours, yielding 10^8 pfu total recombinants. The recombinants were amplified in 500 ml of liquid culture. […] (Oxford, U.K.: Oxford University Press), 2001.
as §2

[8] = molecular target: monkey membrane-bound aminopeptidase P; settings: 0.5 mM arg = Pro-Pro in 0.1 M Hepes, pH 8.0; triplicate; cited from earlier work

**Q.** With D(KLAKLAK)2 as the compound, how does the mitochondrial swelling [1] read?
**A.** The mitochondrial swelling was “marked mitochondrial swelling”.

**Q.** Which results are given for CC(NC(=O)C1CCCN1C(=O)C1CCCC1S)C(N)=O (stereo not shown) [Compound 10]?
**A.** IC50 [2]: 3.4 µM; IC50 [3]: 29 µM

**Q.** For CC(C)C[C@H](N)[C@@H](O)C(=O)N1CCC[C@H]1C(=O)N[C@@H](C)C(N)=O [Compound 6], which IC50 [2] is on record?
**A.** The IC50 was 0.31 µM.

**Q.** What about the IC50 [4] of the same compound?
**A.** Its IC50 is 2.1 µM.

**Q.** What does the source list for NC(=O)C1CCCN1C(=O)C1CCCN1C(=O)C(O)C(N)Cc1ccccc1 (stereo not shown) [Compound 3]?
**A.** IC50 [2]: 390 µM; IC50 [4]: 1300 µM

**Q.** What does the source list for CC(C)C[C@H](N)[C@H](O)C(=O)N1CCC[C@H]1C(=O)N[C@@H](C)C(N)=O [Compound 8]?
**A.** IC50 [2]: 100 µM; IC50 [4]: 470 µM

**Q.** With C[C@H](NC(=O)[C@@H]1CCCN1C(=O)[C@@H]1CCCN1C(=O)[C@@H](O)[C@H](N)Cc1ccccc1)C(N)=O [Compound 1, apstatin] as the compound, how does the IC50 [2] read?
**A.** The IC50 was 4.1 µM.

**Q.** What about the Ki ([2]; Yoshimoto et al. 1994) of the same compound?
**A.** Its Ki is 2.6 µM.

**Q.** What about the IC50 [4] of the same compound?
**A.** Its IC50 is 9.4 µM.

**Q.** What about the Ki ([4]; in brackets in the IC50 cell of Table 2) of the same compound?
**A.** The Ki was 7.8 µM.

**Q.** What about the “effect on binding of aminopeptidase P encoding phage to insolubilized CPGPEGAGC peptide” value [5] of the same compound?
**A.** The value was “blocked”.

**Q.** Which “effect of coinjection on recovery of CPGPEGAGC phage from breast tissue” value ([6]; 0.5 ml of 2 mg/ml free peptide coinjected) does the source give for “CPGPEGAGC (also: cyclized (mode not given here)) [breast homing cyclic peptide, synthesized, cyclized and purified by HPLC]” here?
**A.** Its value is “markedly reduced”.

**Q.** And the “effect on breast homing / recovery of CRSS phage” value ([6]; anti-aminopeptidase P antiserum or 1 mg free peptide)?
**A.** The value was “no effect”.

**Q.** And the “selective homing identified by in vivo panning” value (“selective homing identified” for short) [7]?
**A.** Its value is “selectively homing to breast tissue”.

**Q.** And the “effect on binding of aminopeptidase P encoding phage to insolubilized CPGPEGAGC peptide” value [5]?
**A.** The value was “blocked”.

**Q.** Which IC50 [2] does the source give for CC(C)C[C@@H](N)[C@@H](O)C(=O)N1CCC[C@H]1C(=O)N[C@@H](C)C(N)=O [Compound 7] here?
**A.** Its IC50 is 19 µM.

**Q.** What about the IC50 [4] of the same compound?
**A.** Its IC50 is 50 µM.

**Q.** For CC(NC(=O)C1CCCN1C(=O)C1CCCN1C(=O)C(O)C(N)Cc1ccccc1)C(=O)NCCC(=O)NC(CS)C(N)=O (stereo not shown) [Compound 4] (X1-PPA[βAla]C-NH2; configuration not given here), which IC50 [2] is on record?
**A.** Its IC50 is 0.66 µM.

**Q.** For CRTS [CRTS (SEQ ID NO: 4)], which “selective homing identified” value [7] is on record?
**A.** The value was “selectively homing to breast tissue”.

**Q.** Which results are given for CC(C)C[C@@H](N)[C@H](O)C(=O)N1CCC[C@H]1C(=O)N[C@@H](C)C(N)=O [Compound 5]?
**A.** IC50 [2]: 0.56 µM; IC50 [4]: 4.5 µM

**Q.** What does the source list for C[C@H](NC(=O)[C@@H]1CCCN1C(=O)C1CCCCC1C(=O)NO)C(N)=O (single isomer, unassigned) [Compound 12]?
**A.** IC50 [2]: 37 µM; IC50 [4]: 50 µM

**Q.** Which “selective homing identified” value [7] does the source give for CRSS [CRSS (SEQ ID NO: 3)] here?
**A.** Its value is “selectively homing to breast tissue”.

**Q.** For C[C@H](NC(=O)[C@@H]1CCCN1C(=O)C1CCCC1S)C(N)=O (single isomer, unassigned) [Compound 11], which IC50 [2] is on record?
**A.** Its IC50 is 150 µM.

**Q.** What about the IC50 [4] of the same compound?
**A.** Its IC50 is 300 µM.

**Q.** And the IC50 [8]?
**A.** The IC50 was 300 µM.

**Q.** What about the IC50 [3] of the same compound?
**A.** Its IC50 is 390 µM.

Reference: US7666391B2, “Breast homing peptides and methods of identifying same using aminopeptidase P” (Burnham Institute for Medical Research, priority 2001, dated 2010)
